Measured values taken from patent publication US20210078972A1, “QUINOLINE OR QUINAZOLINE COMPOUND AND APPLICATION THEREOF” (HAIHE BIOPHARMA CO., LTD., priority 2018, published 2021).

Columns and labels:
[1] = molecular target: T1, AXL kinase domain recombinant protein (Homo sapiens, UniProt P30530); experiment: AXL kinase inhibition, ELISA; type: biochemical; conditions: ATP 5 μM
T1 construct: the AXL kinase domain recombinant protein (eurofins, 14-512); purchased eurofins 14-512
T1 sequence (P30530 536-807 limits assumed): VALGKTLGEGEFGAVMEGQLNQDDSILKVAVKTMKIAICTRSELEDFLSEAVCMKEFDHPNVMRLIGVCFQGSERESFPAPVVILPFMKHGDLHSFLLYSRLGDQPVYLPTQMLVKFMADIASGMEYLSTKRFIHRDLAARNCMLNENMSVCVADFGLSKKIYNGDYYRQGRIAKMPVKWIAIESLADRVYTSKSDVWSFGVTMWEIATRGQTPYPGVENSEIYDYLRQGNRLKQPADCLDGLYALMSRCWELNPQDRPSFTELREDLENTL
Experimental: Detection of the activity of kinase: Enzyme-linked immunosorbent assay (ELISA) technology was used to detect the inhibitory activities of the compounds against the kinase. […] After the liquid in the well was discarded, the plate was washed three times with T-PBS (PBS containing 0.1% Tween-20), 200 μL T-PBS per well, 5 minutes for each time. The enzyme label plate was dried in an oven at 37° C. for 1-2 hours. To each well was added 50 μL of ATP solution diluted with reaction buffer (50 mM HEPES, pH 7.4, 50 mM MgCl2, 0.5 mM MnCl2, 0.2 mM Na3VO4, 1 mM DTT) with a final concentration of 5 μM. […] Two wells with no enzyme for control are required for each experiment. The plate was incubated on a shaker (100 rpm) at 37° C. and reacted for 1 hour. The plate was washed three times with T-PBS. 100 μ/well of primary antibody PY99 dilution was added and the plate was reacted in a shaker at 37° C. for 0.5 hour. The plate was washed three times with T-PBS. 100 μ/well of secondary antibody horseradish peroxidase-labeled goat anti-mouse IgG dilution was added and the plate was reacted in a shaker at 37° C. for 0.5 hour. The plate was washed three times with T-PBS. 2 mg/ml of OPD color solution was added with 100 μ/well (diluted with 0.1 M citric acid-sodium citrate buffer (pH=5.4) containing 0.03% H2O2), and the plate was reacted at 25° C. in the dark for 1-10 minutes. (Ultrasound is required for the dissolution of OPD, and the color solution needs to be prepared for immediate use). 50 μ/well of 2 M H2SO4 was added to stop the reaction, and the wavelength-adjustable enzyme-labeling instrument SPECTRA MAX 190 was used to read the data at a wavelength of 490 nm.
The inhibition rate of the sample was obtained by the following formula: […]
The IC50 values were obtained by regression with the four-parameter method using the software attached to the enzyme-labeling instrument.

[2] = system: Mixed primary human hepatocytes; experiment: Metabolism in human hepatocytes, UPLC-UV/Q-TOF MS; type: in vitro ADME; conditions: 180 min
Experimental: (§1) In this example, a UPLC-UV/Q-TOF MS method was used to evaluate the differences in the metabolic processes of TL134 in hepatocytes of five species of human, monkey, canine, rat, and mouse. It provides a reference for the selection of preclinical pharmacokinetics and studies on animal species safety evaluation.
(§2) The total volume of each incubation sample was 100 μL, the medium was WME medium (pH 7.4), and the incubation sample included hepatocytes with a cell density of 1.0×10^6 cells/mL and TL134 with a final concentration of 3.0 μM; the negative control sample was incubated with thermal-inactivated mixed hepatocytes (without cell counting) of five species of animals and TL134, and the buffer control sample was incubated with WME medium and TL134. All samples were incubated at 37° C. for 180 min, and then 100 μL of ice-cold acetonitrile was added to stop the reaction. The samples were stored at −70° C. for ready to be tested, and all incubation samples were double samples.
(§3) Triple TOF 5600′ quadrupole-time-of-flight tandem mass spectrometer (Q-TOF MS), equipped with electrospray ionization source (ESI source) and CDS automatic calibration system, AB SCIEX Company, USA; Acquity UPLC liquid chromatography system, including binary infusion pump, autosampler, column oven, degasser and TUV ultraviolet detector, Waters Company, USA. […]

[3] = system: Mixed primary male SD rat hepatocytes; experiment: Metabolism in rat hepatocytes, UPLC-UV/Q-TOF MS; type: in vitro ADME; conditions: 180 min
Experimental: as §1, §2, §3

Compound | IC50 [1] [nM] | prototype drug metabolized, judging from the UV chromatographic peak areas [2] | prototype drug metabolized, judging from the UV chromatographic peak areas [3] [%]
CCc1ccc2c(c1)c(=O)c(C(=O)Nc1ccc(Oc3ncnc4cc(OCCCN5CCOCC5)c(OC)cc34)c(F)c1)c(C)n2C [GDL5000123, 6-ethyl-N-(3-fluoro-4-((6-methoxy-7-(3-morpholinopropoxy)quinazolin-4-yl)oxy)phenyl)-1,2-dime thyl-4-oxo-1,4-dihydroquinoline-3-carboxamide, reference compound] | 1.2 | – | –
COc1cc2c(Oc3ccc(NC(=O)c4c(C)n(C)c5ccc(OC(F)(F)F)cc5c4=O)cc3F)ncnc2cc1OCCCN1CCOCC1 [TL-134, N-(3-fluoro-4-((6-methoxy-7-(3-morpholinopropoxy)quinazolin-4-yl)oxy)phenyl)-1,2-dim ethyl-4-oxo-6-(trifluoromethoxy)-1,4-dihydroquinoline-3-carboxamide] | 1.1 | approximately 17.8% | ~19.8
